Measured values published in patent US20080098491A1, “MOUSE MODELS TO STUDY CACHEXIA” (ZOLTAN LABORATORIES LLC, priority 2006, published 2008).

Tests used:
MXT mouse mammary tumor [1] = experiment: Cisplatin-treated MXT mouse mammary tumor model, purified PALP, AT, holo-TF, apo-TF (Example 9, Experiment 2); type: in vivo; details: every second day from day 7 (6-times): cisplatin 3-mg/kg i.p., proteins 12-mg/kg s.c.
Text: (§1) The B16 mouse melanoma and MXT mouse mammary tumors were developed in first generation hybrid BDF1 (C57 B1 female×DBA/2 male) adult female mice kept at specified pathogen free (SPF) hygienic level. These models were chosen for these experiments because these mice have the complete immune system, and both tumors grow very rapidly. To develop the tumors, B16 and MXT tumor tissue fragments of about 0.1-cm^3 were surgically implanted subcutaneously into the intrascapular region to develop the tumors. Each tumor fragment contained about 1-1.5×10^6 cells. The animals were kept in macrolon cages on ventilated rack at 22-24° C. (50-60% humidity) with lighting regimen of 12/12 h light/dark. The animals had free access to tap water and were fed with sterilized standard diet (Charles River VRF1, Germany) ad libitum. The animals were taken care of according to the “Guiding Principle for the care and use of Animals” based upon the Helsinki declaration and they were approved by the local ethical committee.
(§2) In case of both tumor models the tumor size was usually in the range of 0.2 to 0.5-g when treatments started 7-11 days after tumor implantation; the mice were selected so that in the same treatment group the difference in tumor size was no greater than 0.1 gram. In some experiments, the test proteins were suspended in physiological saline and injected in 50-μl volume subcutaneously in the vicinity of tumor (within 1-cm of tumor margin). In other experiments, the test proteins were dispersed in Vaselinum cholesteratum and used topically; 150-mg cream was applied on the tumor and the vicinity of tumor area (with about 0.5-cm of the tumor margin). The tumor volume was determined by using calipers; this technique is well known to one having ordinary skill in the art. Tumor volume was calculated according to the generally accepted formula: V=a^2×b×7r/6, where “a” and “b” mean the shortest and longest diameter, respectively, of the measured tumor.
Experiment 2. The commercial PALP used in this model for Exp. 1 was composed of PALP (˜10%), TF (˜12%), AT (˜30%), albumin (˜35%) and the degradation products of TF (˜13%). […] In this experiment, it was determined whether the other two major proteins, i.e. TF and AT, present in the commercial PALP preparation in addition to PALP, also influence cisplatin-induced loss of body weight or not. The mouse MXT mammary tumor was developed as described in Example 3. In the first group, animals remained untreated during the whole observation period. In the second group, starting on the 7th day after tumor implantation, mice were administered 3-mg per 1-kg of cisplatin i.p. 6-times every second day. In the third group, starting on the 7th day after tumor implantation, mice were simultaneously administered 3-mg per 1-kg of cisplatin i.p. and 12-mg per 1-kg of purified PALP s.c. In the fourth group, starting on the 7th day after tumor implantation, mice were simultaneously administered 3-mg per 1-kg of cisplatin i.p. and 12-mg per 1-kg of highly purified AT s.c. In the fifth group, starting on the 7th day after tumor implantation, mice were simultaneously administered 3-mg per 1-kg of cisplatin i.p. and 12-mg per 1-kg of commercial holo-TF (h-TF, T 0665 in the Sigma catalog) s.c. In the sixth group, starting on the 7th day after tumor implantation, mice were simultaneously administered 3-mg per 1-kg of cisplatin i.p. and 12-mg per 1-kg of commercial apo-TF (a-TF, T 2036 in the Sigma catalog) s.c. Holo-TF contained 1,100-1,600 μg iron per gram protein while apo-TF was essentially iron-free. Each treatment with the proteins was also performed 6-times on every second day simultaneously with the cisplatin treatment. Each group included 7 animals. The mean values for total weight, tumor weight and body weight (the difference between total and tumor weight) are shown in gram in TABLE 7.

MXT mouse mammary tumor [2] = experiment: Cisplatin-treated MXT mouse mammary tumor model, PALP and TF (Example 9, Experiment 1); type: in vivo; details: for Body weight (total weight minus tumor weight) / Total weight / Tumor weight: every second day from day 7 (7-times): cisplatin 3-mg/kg i.p., purified PALP 16, commercial PALP 60, TF 14 mg/kg s.c.
Text: as §1, §2
Experiment 1. The mouse MXT mammary tumor was developed as described in Example 3. In the first group, animals remained untreated during the whole observation period. In the second group, starting on the 7th day after tumor implantation, mice were intraperitoneally (i.p.) administered 3-mg per 1-kg total weight of cisplatin 7-times every second day. In the third group, starting on the 7th day after tumor implantation, mice were simultaneously administered 3-mg per 1-kg of cisplatin i.p. and 16-mg per 1-kg of purified PALP s.c. In the fourth group, starting on the 7th day after tumor implantation, mice were simultaneously administered 3-mg per 1-kg of cisplatin i.p. and 60-mg per 1-kg of commercial PALP s.c. In the fifth group, starting on the 7th day after tumor implantation, mice were simultaneously administered 3-mg per 1-kg of cisplatin i.p. and 14-mg per 1-kg of commercial TF (T 3309 in the Sigma catalog) s.c. Each treatment was performed 7-times on every second day. Each group included 7 animals. The mean values for total weight, tumor weight and body weight (the difference between total and tumor weight) are shown in TABLE 6.

[3] = day 7 after tumor transplantation
[4] = day 11 after tumor transplantation
[5] = day 14 after tumor transplantation
[6] = day 16 after tumor transplantation
[7] = day 18 after tumor transplantation
[8] = day 21 after tumor transplantation

In the case of N.N.[Cl][Pt][Cl] [Cisplatin, cisplatin], the “Body weight (total weight minus tumor weight)” value (MXT mouse mammary tumor [1]; day 7 after transplantation) was 22.25 g, the Total weight (MXT mouse mammary tumor [1]; day 7 after transplantation) was 22.6 g and the Tumor weight (MXT mouse mammary tumor [1]; day 7 after transplantation) was 0.35 g. The “Body weight (total weight minus tumor weight)” value (MXT mouse mammary tumor [1]; day 11 after transplantation) was 21.25 g, the Total weight (MXT mouse mammary tumor [1]; day 11 after transplantation) was 22.7 g and the Tumor weight (MXT mouse mammary tumor [1]; day 11 after transplantation) was 1.45 g. The “Body weight (total weight minus tumor weight)” value (MXT mouse mammary tumor [1]; day 13 after transplantation) was 20.05 g, the Total weight (MXT mouse mammary tumor [1]; day 13 after transplantation) was 21.9 g and the Tumor weight (MXT mouse mammary tumor [1]; day 13 after transplantation) was 1.85 g. The “Body weight (total weight minus tumor weight)” value (MXT mouse mammary tumor [1]; day 15 after transplantation) was 18.1 g, the Total weight (MXT mouse mammary tumor [1]; day 15 after transplantation) was 20.8 g and the Tumor weight (MXT mouse mammary tumor [1]; day 15 after transplantation) was 2.7 g. For the same molecule, the “Body weight (total weight minus tumor weight)” value (MXT mouse mammary tumor [1]; day 18 after transplantation) was 16.8 g, the Total weight (MXT mouse mammary tumor [1]; day 18 after transplantation) was 20.3 g and the Tumor weight (MXT mouse mammary tumor [1]; day 18 after transplantation) was 3.5 g. The “Body weight (total weight minus tumor weight)” value (MXT mouse mammary tumor [2]; [3]) was 22.45 g, the Total weight (MXT mouse mammary tumor [2]; [3]) was 22.70 g and the Tumor weight (MXT mouse mammary tumor [2]; [3]) was 0.25 g. The “Body weight (total weight minus tumor weight)” value (MXT mouse mammary tumor [2]; [4]) was 22.10 g, the Total weight (MXT mouse mammary tumor [2]; [4]) was 23.10 g and the Tumor weight (MXT mouse mammary tumor [2]; [4]) was 1.00 g. The “Body weight (total weight minus tumor weight)” value (MXT mouse mammary tumor [2]; [5]) was 19.50 g, the Total weight (MXT mouse mammary tumor [2]; [5]) was 21.70 g and the Tumor weight (MXT mouse mammary tumor [2]; [5]) was 2.20 g. The “Body weight (total weight minus tumor weight)” value (MXT mouse mammary tumor [2]; [6]) was 16.90 g, the Total weight (MXT mouse mammary tumor [2]; [6]) was 20.10 g and the Tumor weight (MXT mouse mammary tumor [2]; [6]) was 3.20 g. For the same molecule, the “Body weight (total weight minus tumor weight)” value (MXT mouse mammary tumor [2]; [7]) was 16.30 g, the Total weight (MXT mouse mammary tumor [2]; [7]) was 20.10 g and the Tumor weight (MXT mouse mammary tumor [2]; [7]) was 3.80 g. For the same molecule, the “Body weight (total weight minus tumor weight)” value (MXT mouse mammary tumor [2]; [8]) was 15.10 g, the Total weight (MXT mouse mammary tumor [2]; [8]) was 19.20 g and the Tumor weight (MXT mouse mammary tumor [2]; [8]) was 4.10 g. The “Decrease in body weight” value (MXT mouse mammary tumor [2]; from day 11 to day 23, cisplatin 3-mg/kg i.p. every second day) was roughly 33%.
